{"source": "patent US11851391B2", "about": "“Antifungal compounds and methods of forming the same” (University of Kentucky Research Foundation, priority 2018, dated 2023)", "key": {"[1]": {"tested_on": "C. albicans ATCC 10231 (strain A) biofilms", "assay": "Biofilm disruption assay (XTT reduction)", "assay_type": "cell-based, Candida albicans", "experimental": "(§1) Biofilms are complex communities of one or more species of microorganisms encased in extracellular polymeric substances and attached to not only a solid surface but also to each other. Because of their complex, matrix-like nature, antifungal agents are often unable to reach the pathogens embedded in these networks. […] This increase reflected some resistance of Candida biofilms against the bishydrazone 17c.\n(§2) Biofilm disruption assays were performed to assess the effectiveness of compound 17c against sessile yeast cells for two representative yeast strains, C. albicans ATCC 10231 (strain A) and C. albicans ATCC 64124 (strain B). VOR was used as a positive control. Biofilm assays were performed in 96-well plates using XTT [2,3-bis(2-methoxy-4-nitro-5-sulfophenyl)-2H-tetrazolium-5-carboxanilide] to measure the viability of the biofilm as previously described. An overnight culture of the yeast cells was grown at 35° C. in YPD medium with shaking at 200 rpm. The overnight culture was diluted in RPMI 1640 medium to an OD600 between 0.12 and 0.15 to make a working stock. The working stock was transferred to 96-well plates in 100 μL aliquots, leaving one column empty for the sterile controls. […] 80 μL of liquid from each well was transferred to new plates, which were then read for absorbance at 450 nm with a SpectraMax M5 plate reader (Molecular Devices, Sunnyvale, CA, USA). […]"}, "[2]": {"tested_on": "C. albicans ATCC 64124 (strain B) biofilms", "assay": "Biofilm disruption assay (XTT reduction)", "assay_type": "cell-based, Candida albicans", "experimental": "as §1, §2"}}, "data": [{"molecule": "C/C(=N\\Nc1ccc(F)cc1)c1ccc(-c2ccc(/C(C)=N/Nc3ccc(F)cc3)cc2)cc1", "note": "[Compound 17c, 4,4′-bis((E)-1-(2-(4-fluorophenyl)hydrazono)ethyl)-1,1′-biphenyl]", "values": [{"measurement": "increase of SMIC values compared to planktonic MIC value", "setting": "[1]", "value": "4- to 16 fold"}, {"measurement": "increase of SMIC values compared to planktonic MIC value", "setting": "[2]", "value": "4- to 8 fold"}]}]}
